Assay results reported in PubChem BioAssay (NCI).
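Cells were grown in 96-well plates and exposed to each compound for 48 hours at five concentrations; endpoints were interpolated linearly between bracketing concentrations, or set to the highest concentration if not reached. TGI denotes the concentration required for complete inhibition of growth.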

Legend:
Assay in all cases: growth of human tumour cells (NCI), 48 h
[1] = system: HOP-18 NSCLC
[2] = system: NCI-H23 lung
[3] = system: RXF-631 renal
[4] = system: SN12C renal
[5] = system: M19-MEL melanoma
[6] = system: KM20L2 colon
[7] = system: HOP-92 NSCLC
[8] = system: ACHN renal
[9] = system: OVCAR-5 ovarian
[10] = system: U251 CNS
[11] = system: LOX IMVI melanoma
[12] = system: IGROV1 ovarian
[13] = system: SNB-75 CNS
[14] = system: DMS 273 small cell lung
[15] = system: HCC-2998 colon
[16] = system: OVCAR-8 ovarian
[17] = system: OVCAR-3 ovarian
[18] = system: HOP-62 NSCLC
[19] = system: CCRF-CEM leukemia
[20] = system: SW-620 colon
[21] = system: HCT-15 colon
[22] = system: CAKI-1 renal
[23] = system: MOLT-4 leukemia
[24] = system: A549 NSCLC
[25] = system: K-562 leukemia
[26] = system: RXF 393 renal
[27] = system: UACC-257 melanoma
[28] = system: LXFL 529 NSCLC
[29] = system: SF-539 CNS
[30] = system: TK-10 renal
[31] = system: NCI-H522 lung
[32] = system: SF-295 CNS
[33] = system: MALME-3M melanoma
[34] = system: NCI-H460 lung
[35] = system: NCI-H226 lung
[36] = system: RPMI-8226 leukemia
[37] = system: OVCAR-4 ovarian
[38] = system: HL-60(TB) leukemia
[39] = system: HT29 colon
[40] = system: XF 498 CNS
[41] = system: SR leukemia
[42] = system: UO-31 renal
[43] = system: DMS 114 small cell lung
[44] = system: SK-OV-3 ovarian
[45] = system: HCT-116 colon
[46] = system: SK-MEL-5 melanoma
[47] = system: M14 melanoma
[48] = system: EKVX NSCLC
[49] = system: SNB-78 CNS
[50] = system: SF-268 CNS
[51] = system: UACC-62 melanoma
[52] = system: SK-MEL-2 melanoma
[53] = system: SNB-19 CNS
[54] = system: DLD-1 colon
[55] = system: A498 renal
[56] = system: SK-MEL-28 melanoma
[57] = system: KM12 colon
[58] = system: COLO 205 colon
[59] = system: 786-0 renal

Q: What does the source list for `COc1cc2c(cc1OC)C1Cc3sccc3CN1CC2` (stereo not drawn)?
A: TGI [1]: > 100 µM; TGI [2]: > 100 µM; TGI [3]: > 100 µM; TGI [4]: > 100 µM; TGI [5]: > 100 µM; TGI [6]: > 100 µM; TGI [7]: > 100 µM; TGI [8]: > 100 µM; TGI [9]: > 100 µM; TGI [10]: > 100 µM; TGI [11]: > 100 µM; TGI [12]: > 100 µM; TGI [13]: > 100 µM; TGI [14]: > 100 µM; TGI [15]: > 100 µM; TGI [16]: > 100 µM; TGI [17]: > 100 µM; TGI [18]: > 100 µM; TGI [19]: > 100 µM; TGI [20]: > 100 µM; TGI [21]: > 100 µM; TGI [22]: > 100 µM; TGI [23]: > 100 µM; TGI [24]: > 100 µM; TGI [25]: > 100 µM; TGI [26]: > 100 µM; TGI [27]: > 100 µM; TGI [28]: > 100 µM; TGI [29]: > 100 µM; TGI [30]: > 100 µM; TGI [31]: > 100 µM; TGI [32]: > 100 µM; TGI [33]: > 100 µM; TGI [34]: > 100 µM; TGI [35]: > 100 µM; TGI [36]: > 100 µM; TGI [37]: > 100 µM; TGI [38]: > 100 µM; TGI [39]: > 100 µM; TGI [40]: > 100 µM; TGI [41]: > 100 µM; TGI [42]: > 100 µM; TGI [43]: > 100 µM; TGI [44]: > 100 µM; TGI [45]: > 100 µM; TGI [46]: > 100 µM; TGI [47]: > 100 µM; TGI [48]: > 100 µM; TGI [49]: > 100 µM; TGI [50]: > 100 µM; TGI [51]: > 100 µM; TGI [52]: > 100 µM; TGI [53]: > 100 µM; TGI [54]: > 100 µM

Q: Which TGI [1] does the source give for `Cc1ccc(NC(=O)OCC(COc2ccc(Cl)cc2)OC(=O)Nc2ccc(C)cc2)cc1` (stereo not drawn) here?
A: > 100 µM

Q: And the TGI [2]?
A: > 100 µM

Q: And the TGI [3]?
A: 24.9 µM

Q: And the TGI [4]?
A: > 100 µM

Q: What about the TGI [5] of the same compound?
A: > 100 µM

Q: And the TGI [6]?
A: > 100 µM

Q: And the TGI [7]?
A: 31 µM

Q: What about the TGI [8] of the same compound?
A: > 100 µM

Q: What about the TGI [9] of the same compound?
A: > 100 µM

Q: What about the TGI [10] of the same compound?
A: > 100 µM

Q: What about the TGI [11] of the same compound?
A: 96.9 µM

Q: And the TGI [12]?
A: > 100 µM

Q: What about the TGI [13] of the same compound?
A: 36.9 µM

Q: What about the TGI [14] of the same compound?
A: 66.4 µM

Q: And the TGI [15]?
A: > 100 µM

Q: And the TGI [55]?
A: 60.4 µM

Q: What about the TGI [16] of the same compound?
A: > 100 µM

Q: And the TGI [17]?
A: 61.8 µM

Q: What about the TGI [18] of the same compound?
A: > 100 µM

Q: And the TGI [19]?
A: > 100 µM

Q: And the TGI [20]?
A: > 100 µM

Q: What about the TGI [56] of the same compound?
A: > 100 µM

Q: And the TGI [21]?
A: > 100 µM

Q: What about the TGI [22] of the same compound?
A: 57 µM

Q: What about the TGI [23] of the same compound?
A: > 100 µM

Q: And the TGI [24]?
A: > 100 µM

Q: And the TGI [25]?
A: 60.4 µM

Q: What about the TGI [26] of the same compound?
A: 43.1 µM

Q: What about the TGI [27] of the same compound?
A: > 100 µM

Q: And the TGI [28]?
A: > 100 µM

Q: What about the TGI [29] of the same compound?
A: 52.3 µM

Q: What about the TGI [30] of the same compound?
A: 96.9 µM

Q: And the TGI [31]?
A: > 100 µM

Q: What about the TGI [32] of the same compound?
A: 80.6 µM

Q: What about the TGI [33] of the same compound?
A: 54.2 µM

Q: And the TGI [34]?
A: > 100 µM

Q: What about the TGI [35] of the same compound?
A: 67.9 µM

Q: And the TGI [36]?
A: > 100 µM

Q: And the TGI [57]?
A: > 100 µM

Q: And the TGI [37]?
A: 73.6 µM

Q: And the TGI [38]?
A: 27.9 µM

Q: And the TGI [39]?
A: 71.7 µM

Q: And the TGI [40]?
A: 86.7 µM

Q: What about the TGI [41] of the same compound?
A: > 100 µM

Q: And the TGI [42]?
A: > 100 µM

Q: What about the TGI [43] of the same compound?
A: 98.8 µM

Q: What about the TGI [44] of the same compound?
A: > 100 µM

Q: What about the TGI [45] of the same compound?
A: > 100 µM

Q: What about the TGI [46] of the same compound?
A: > 100 µM

Q: And the TGI [47]?
A: 63.8 µM

Q: What about the TGI [48] of the same compound?
A: > 100 µM

Q: What about the TGI [49] of the same compound?
A: 82.5 µM

Q: And the TGI [58]?
A: > 100 µM

Q: And the TGI [50]?
A: > 100 µM

Q: And the TGI [51]?
A: > 100 µM

Q: And the TGI [52]?
A: 58.4 µM

Q: And the TGI [53]?
A: 57.3 µM

Q: And the TGI [54]?
A: > 100 µM

Q: For `COC(=O)c1cc(-c2ccc(OC)c(OC)c2)oc1-c1ccc(OC)c(OC)c1`, which TGI [1] is on record?
A: > 100 µM

Q: And the TGI [2]?
A: > 100 µM

Q: What about the TGI [3] of the same compound?
A: > 100 µM

Q: What about the TGI [4] of the same compound?
A: 93.6 µM

Q: What about the TGI [5] of the same compound?
A: > 100 µM

Q: What about the TGI [6] of the same compound?
A: > 100 µM

Q: What about the TGI [7] of the same compound?
A: 71.4 µM

Q: What about the TGI [8] of the same compound?
A: > 100 µM

Q: What about the TGI [9] of the same compound?
A: > 100 µM

Q: And the TGI [10]?
A: > 100 µM

Q: What about the TGI [11] of the same compound?
A: > 100 µM

Q: And the TGI [12]?
A: > 100 µM

Q: What about the TGI [13] of the same compound?
A: > 100 µM

Q: What about the TGI [14] of the same compound?
A: > 100 µM

Q: What about the TGI [15] of the same compound?
A: > 100 µM

Q: What about the TGI [55] of the same compound?
A: 59.5 µM

Q: And the TGI [16]?
A: > 100 µM

Q: And the TGI [17]?
A: > 100 µM

Q: What about the TGI [18] of the same compound?
A: > 100 µM

Q: What about the TGI [19] of the same compound?
A: > 100 µM

Q: What about the TGI [20] of the same compound?
A: > 100 µM

Q: What about the TGI [56] of the same compound?
A: > 100 µM

Q: What about the TGI [21] of the same compound?
A: > 100 µM

Q: And the TGI [22]?
A: > 100 µM

Q: What about the TGI [23] of the same compound?
A: > 100 µM

Q: What about the TGI [24] of the same compound?
A: > 100 µM

Q: And the TGI [25]?
A: > 100 µM

Q: What about the TGI [26] of the same compound?
A: 72.7 µM

Q: What about the TGI [27] of the same compound?
A: > 100 µM

Q: And the TGI [28]?
A: > 100 µM

Q: And the TGI [29]?
A: 96.2 µM

Q: And the TGI [30]?
A: > 100 µM

Q: And the TGI [32]?
A: > 100 µM

Q: And the TGI [33]?
A: > 100 µM

Q: And the TGI [34]?
A: > 100 µM

Q: And the TGI [35]?
A: > 100 µM

Q: What about the TGI [36] of the same compound?
A: > 100 µM

Q: What about the TGI [57] of the same compound?
A: > 100 µM

Q: What about the TGI [37] of the same compound?
A: > 100 µM

Q: What about the TGI [38] of the same compound?
A: > 100 µM

Q: What about the TGI [39] of the same compound?
A: > 100 µM

Q: And the TGI [40]?
A: > 100 µM

Q: What about the TGI [41] of the same compound?
A: > 100 µM

Q: And the TGI [42]?
A: > 100 µM

Q: And the TGI [43]?
A: 95.5 µM

Q: And the TGI [44]?
A: > 100 µM

Q: What about the TGI [45] of the same compound?
A: > 100 µM

Q: And the TGI [59]?
A: > 100 µM

Q: What about the TGI [47] of the same compound?
A: > 100 µM

Q: And the TGI [48]?
A: > 100 µM

Q: And the TGI [49]?
A: > 100 µM

Q: What about the TGI [58] of the same compound?
A: 39.4 µM

Q: And the TGI [50]?
A: > 100 µM

Q: And the TGI [51]?
A: > 100 µM

Q: And the TGI [52]?
A: > 100 µM

Q: And the TGI [54]?
A: > 100 µM
